Results from patent publication US7897727B2, “Bioactive peptide for cell adhesion” (University of Delaware, priority 2000, dated 2011).
“Also recorded” adds a separate entry of the source. No end group written: not given here.

Assays:
PC3 cells = test: Cell adhesion assay on coated 96 well plates (MTS), PC3 cells; type: cell-based; conditions: peptide conjugated to BSA coated on MAXISORP plates; 1 hr attachment at 37° C.; serum-free RPMI 1640
Protocol: (§1) Concentrated stocks of rat-tail type I collagen were diluted to designated concentrations in 0.02 N acetic acid and coated overnight on MAXISORP® 96 well plates at room temperature (RT). Poly-L-lysine (PLL), heat-denatured bovine serum albumin (BSA), the peptide of SEQ ID NO:1 conjugated to BSA (indicated in FIGS. 4-7 as “PLN4”) and a scrambled peptide from domain IV of perlecan having the amino acid sequence TGKSVGGSLIWPVRGQH (SEQ ID NO:4) conjugated to BSA (indicated in FIGS. 4-7 as “PLN4*”) were diluted in 1×phosphate buffered saline (PBS) and also coated overnight on MAXISORP® 96 well plates at RT. The following day, the plates were washed three times with 1×PBS to remove any residue and blocked with 1% heat-denatured BSA for 1 hr at 37° C. Following blocking, plates were washed once with 1×PBS. Cells from various cell lines were harvested with 0.5 mM EDTA and collected by centrifugation. Pelleted cells were resuspended in serum-free RPMI 1640 and plated at a concentration of 2.5×10^4 cells per 100 μl. Cells were allowed to attach to the wells for 1 hr at 37° C. Next, the wells were washed once with 1% heat-denatured BSA to remove any unattached cells. Cell adhesion was quantified as in Example 1, using the CELLTITER 96® AQueous Non-Radioactive Cell Proliferation Assay (MTS). […] Following incubation, an Elisa plate reader was used to measure optical density. […]

[1] = system: marrow stromal cells HS27a; test: Cell adhesion assay on coated 96 well plates (MTS), HS27a cells; type: cell-based; conditions: peptide conjugated to BSA coated on MAXISORP plates; 1 hr attachment at 37° C.; serum-free RPMI 1640
Protocol: as §1

marrow stromal cells HS5 = test: Cell adhesion assay on coated 96 well plates (MTS), HS5 cells; type: cell-based; conditions: peptide conjugated to BSA coated on MAXISORP plates; 1 hr attachment at 37° C.; serum-free RPMI 1640
Protocol: as §1

HES cells = test: Cell adhesion assay on coated 96 well plates (MTS), HES cells; type: cell-based, human; conditions: peptide conjugated to BSA coated on MAXISORP plates; 1 hr attachment at 37° C.; serum-free RPMI 1640
Protocol: as §1

[2] = system: multipotent mouse mesenchymal stem cells, 10T1/2; test: Cell adhesion of 10T1/2 cells to coated plastic (CELLTITER 96 MTS assay); type: cell-based
Protocol: Adhesion is measured by the cell proliferation assay CELLTITER 96® AQueous Non-Radioactive Cell Proliferation Assay (MTS) sold by Promega, Inc. The CELLTITER 96® AQueous Non-Radioactive Cell Proliferation Assay is a calorimetric method for determining the number of viable cells in proliferation, cytotoxicity or chemosensitivity assays. The CELLTITER 96® AQueous Non-Radioactive Cell Proliferation Assay is composed of solutions of a tetrazolium compound (3-(4,5-dimethylthiazol-2-yl)-5-(3-carboxymethoxyphenyl)-2-(4-su-lfophenyl)-2H-tetrazolium, inner salt; MTS) and an electron coupling reagent (phenazine methosulfate) PMS. MTS is bioreduced by cells into a formazan that is soluble in tissue culture medium. The absorbance of the formazan at 490 nm can be measured directly from 96 well assay plates without additional processing. The conversion of MTS into the aqueous soluble formazan is accomplished by dehydrogenase enzymes found in metabolically active cells. The quantity of formazan product as measured by the amount of 490 nm absorbance is directly proportional to the number of living cells in culture.
No adhesion to uncoated plastic occurred during the 30 minute time period of this study. BSA (bovine serum albumin) and poly-L-lysine (PLL) were used as coating controls. Collagen I, a known adhesive protein substrate for these cells, served as positive control. […]

Q: With “TGKSVGGSLIWPVRGQH (also: conjugated to BSA) [PLN4*, scrambled peptide from domain IV of perlecan, conjugated to BSA, reference compound]” as the sequence, how does the “cell adhesion / attachment and spreading, PC3 cells” value (PC3 cells) read?
A: cell attachment and spreading did not occur

Q: What about the “cell adhesion / attachment and spreading, HS27a cells” value [1] of the same sequence?
A: cell attachment and spreading did not occur

Q: And the “cell adhesion / attachment and spreading, HS5 cells” value (marrow stromal cells HS5)?
A: cell attachment and spreading did not occur

Q: What about the “cell adhesion / attachment and spreading, HES cells” value (HES cells) of the same sequence?
A: cell attachment and spreading did not occur

Q: With “TWSKVGGHLRPGIVQSG (also: conjugated to BSA; listed as Homo sapiens) [PLN4, adhesive polypeptide derived from domain IV of perlecan; tested conjugated to BSA]” as the sequence, how does the “cell adhesion / attachment and spreading, PC3 cells” value (PC3 cells) read?
A: best adhesion and rapid focal adhesion formation of these four cell types

Q: What about the “cell adhesion / attachment and spreading, HS27a cells” value [1] of the same sequence?
A: did not bind to the peptide

Q: What about the “cell adhesion / attachment and spreading, HS5 cells” value (marrow stromal cells HS5) of the same sequence?
A: did not bind to the peptide

Q: What about the “adhesion of 10T1/2 cells” value ([2]; peptide conjugated to BSA, coated onto plastic, 30 minute time period, MTS absorbance 490 nm, listed as SEQ ID NO:1) of the same sequence?
A: consistently strong; also recorded: best adhesion of the cell types reported herein

Q: And the “focal adhesion formation of 10T1/2 cells (photomicrographs)” value ([2]; plastic coated with BSA conjugated to the polypeptide)?
A: adhesion is followed by focal adhesion formation

Q: And the “cell adhesion / attachment and spreading, HES cells” value (HES cells)?
A: best adhesion and rapid focal adhesion formation of these four cell types
